From the supplement of paper PMC10307832

Assays:
Assay in all cases: relative viability (nuclei count vs DMSO), 5 days (fraction); higher = more cells survive
Venetoclax + Crizotinib = compound: CC1(C)CCC(CN2CCN(c3ccc(C(=O)NS(=O)(=O)c4ccc(NCC5CCOCC5)c([N+](=O)[O-])c4)c(Oc4cnc5[nH]ccc5c4)c3)CC2)=C(c2ccc(Cl)cc2)C1 [Venetoclax] + C[C@@H](Oc1cc(-c2cnn(C3CCNCC3)c2)cnc1N)c1c(Cl)ccc(F)c1Cl [Crizotinib] (partner 1 µM)
In short: (§1)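 After 5 days of treatment, lung cancer cells in 1536-well plates were fixed and stained in a single step (final 0.05% Triton X-100, 1% formaldehyde, 1 ug/ml Hoechst) and their nuclei counted on 4× images. Treatment had been applied by pin tool the day after seeding as one drug alone or as a fixed anchor-drug dose with five library-drug doses (not always all listed) in √10 steps. Relative viability is the nuclei count of treated wells divided by that of vehicle wells, and values are medians of duplicate plates.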

Venetoclax + Linsitinib = compound: CC1(C)CCC(CN2CCN(c3ccc(C(=O)NS(=O)(=O)c4ccc(NCC5CCOCC5)c([N+](=O)[O-])c4)c(Oc4cnc5[nH]ccc5c4)c3)CC2)=C(c2ccc(Cl)cc2)C1 [Venetoclax] + C[C@]1(O)C[C@@H](c2nc(-c3ccc4ccc(-c5ccccc5)nc4c3)c3c(N)nccn32)C1 [Linsitinib] (partner 1 µM)
In short: as §1

Venetoclax + Foretinib = compound: CC1(C)CCC(CN2CCN(c3ccc(C(=O)NS(=O)(=O)c4ccc(NCC5CCOCC5)c([N+](=O)[O-])c4)c(Oc4cnc5[nH]ccc5c4)c3)CC2)=C(c2ccc(Cl)cc2)C1 [Venetoclax] + COc1cc2c(Oc3ccc(NC(=O)C4(C(=O)Nc5ccc(F)cc5)CC4)cc3F)ccnc2cc1OCCCN1CCOCC1 [Foretinib] (partner 0.25 µM)
In short: as §1

Selumetinib + Pictilisib = compound: Cn1cnc2c(F)c(Nc3ccc(Br)cc3Cl)c(C(=O)NOCCO)cc21 [Selumetinib] + CS(=O)(=O)N1CCN(Cc2cc3nc(-c4cccc5[nH]ncc45)nc(N4CCOCC4)c3s2)CC1 [Pictilisib] (partner 1 µM)
In short: as §1

Cell Line	relative viability (Venetoclax + Crizotinib; first compound 0.01 µM)	relative viability (Venetoclax + Crizotinib; first compound 0.03162 µM)	relative viability (Venetoclax + Crizotinib; first compound 0.1 µM)	relative viability (Venetoclax + Crizotinib; first compound 0.3162 µM)	relative viability (Venetoclax + Crizotinib; first compound 1 µM)	relative viability (Venetoclax + Linsitinib; first compound 0.01 µM)	relative viability (Venetoclax + Linsitinib; first compound 0.03162 µM)	relative viability (Venetoclax + Linsitinib; first compound 0.1 µM)	relative viability (Venetoclax + Linsitinib; first compound 0.3162 µM)	relative viability (Venetoclax + Linsitinib; first compound 1 µM)	relative viability (Venetoclax + Foretinib; first compound 0.01 µM)	relative viability (Venetoclax + Foretinib; first compound 0.03162 µM)	relative viability (Venetoclax + Foretinib; first compound 0.1 µM)	relative viability (Venetoclax + Foretinib; first compound 0.3162 µM)	relative viability (Venetoclax + Foretinib; first compound 1 µM)	relative viability (Selumetinib + Pictilisib; first compound 0.02 µM)	relative viability (Selumetinib + Pictilisib; first compound 0.06325 µM)	relative viability (Selumetinib + Pictilisib; first compound 0.2 µM)	relative viability (Selumetinib + Pictilisib; first compound 0.6325 µM)
PC-14	0.844	0.972	1.06	0.864	0.801	0.925	0.993	1.04	0.818	0.811	0.945	0.968	0.939	0.966	0.822	0.723	0.551	0.548	0.519
NCI-H1563	0.872	0.878	0.884	0.996	0.907	1.16	1.29	1.28	1.4	1.24	0.922	0.968	0.961	1.05	0.94	0.616	0.587	0.753	0.638
IA-LM	0.727	0.709	0.584	0.848	0.708	0.51	0.605	0.71	0.418	0.403	1.02	1.17	1.13	1.14	0.977	0.144	0.143	0.119	0.0815
NCI-H2126	0.986	1.02	1.04	0.971	0.969	0.792	0.733	0.695	0.741	0.689	1.17	1.21	0.784	1.09	1.06	0.477	0.434	0.408	0.416
